Measurements as given in US20230192686A1, “1H-PYRROLO[2,3-B]PYRIDINES AND PREPARATION AND USES THEREOF” (BioSplice Therapeutics, Inc., priority 2021, published 2023).

Molecular target: recombinant DYRK1A kinase (Homo sapiens, UniProt Q13627)
Test: DYRK1A kinase assay (Ser/Thr 18 peptide Z-lyte FRET)
Assay type: biochemical
Conditions: DYRK1A kinase activity; 15 μM ATP, 4 μM Ser/Thr peptide 18, one hour at room temperature
In short: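 Recombinant DYRK1A at 0.25 μg/mL was incubated 1 h at room temperature with 15 μM ATP, 4 μM Ser/Thr 18 peptide and compound, in duplicate, 11-point series from 10 μM. Phosphorylation was read by Z-lyte FRET after 1 h protease development, as the coumarin/fluorescein emission ratio converted to % phosphorylation. IC50 by non-linear regression.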

Row | SMILES | EC50 [nM]
1 | CN1CCN(c2cc(-c3cnc4[nH]cc(-c5ccn6ncc(-c7cnn(C)c7)c6c5)c4c3)ccn2)CC1 [Compound 1384, 3-(3-(1-methyl-1H-pyrazol-4-yl)pyrazolo[1,5-a]pyridin-5-yl)-5-(2-(4-methylpiperazin-1-yl)pyridin-4-yl)-1H-pyrrolo[2,3-b]pyridine] | 1
2 | O=C(Nc1cccnc1)c1cnn2ccc(-c3c[nH]c4nc(CO)ccc34)cc12 [Compound 1809, 5-(6-(Hydroxymethyl)-1H-pyrrolo[2,3-b]pyridin-3-yl)-N-(pyridin-3-yl) pyrazolo[1,5-a]pyridine-3-carboxamide] | 3
3 | c1cncc(CNc2ncnc3ccc(-c4c[nH]c5ncccc45)cc23)c1 [Compound 103, N-(Pyridin-3-ylmethyl)-6-(1H-pyrrolo[2,3-b]pyridin-3-yl)quinazolin-4-amine] | 1
4 | CN1CCC(NC(=O)c2cnn3ccc(-c4c[nH]c5nc(C6CCC6)ccc45)cc23)CC1 [Compound 1556, 5-(6-Cyclobutyl-1H-pyrrolo[2,3-b]pyridin-3-yl)-N-(1-methylpiperidin-4-yl)pyrazolo[1,5-a]pyridine-3-carboxamide] | 5
5 | COc1ccc(-c2c[nH]c3ncccc23)nn1 [Compound 69, 3-(6-Methoxypyridazin-3-yl)-1H-pyrrolo[2,3-b]pyridine] | 73
6 | CN1CCC(NC(=O)c2cnc3ccc(-c4c[nH]c5ncccc45)cn23)CC1 [Compound 14, N-(1-Methylpiperidin-4-yl)-6-(1H-pyrrolo[2,3-b]pyridin-3-yl)imidazo[1,2-a]pyridine-3-carboxamide] | 1
7 | Cn1nnc2ccc(-c3c[nH]c4nc(C5CC5)ccc34)cc21 [Compound 1507, 6-(6-Cyclopropyl-1H-pyrrolo[2,3-b]pyridin-3-yl)-1-methyl-1H-benzo[d][1,2,3]triazole] | 38
8 | CN1CCC(C(=O)Nc2ccc3c(-c4ccn5ncc(-c6cccnc6)c5c4)c[nH]c3n2)CC1 [Compound 1847, 1-Methyl-N-(3-(3-(pyridin-3-yl)pyrazolo[1,5-a]pyridin-5-yl)-1H-pyrrolo[2,3-b]pyridin-6-yl)piperidine-4-carboxamide] | 1
9 | O=C1NCCn2nc(-c3c[nH]c4ncccc34)cc21 [Compound 8, 2-(1H-Pyrrolo[2,3-b]pyridin-3-yl)-6,7-dihydropyrazolo[1,5-a]pyrazin-4(5H)-one] | 7
10 | O=C(c1cnn2ccc(-c3c[nH]c4ncccc34)cc12)N1CC2(CNC2)C1 [Compound 61, (5-(1H-Pyrrolo[2,3-b]pyridin-3-yl)pyrazolo[1,5-a]pyridin-3-yl)(2,6-diazaspiro[3.3]heptan-2-yl)methanone] | 4
11 | O=C(NC1CCN(Cc2ccccn2)CC1)c1cnn2ccc(-c3c[nH]c4ncccc34)cc12 [Compound 51, N-(1-(Pyridin-2-ylmethyl)piperidin-4-yl)-5-(1H-pyrrolo[2,3-b]pyridin-3-yl)pyrazolo[1,5-a]pyridine-3-carboxamide] | 1
12 | COc1ccnc2[nH]cc(-c3ccn4ncc(C(=O)NC5CCN(C)CC5)c4c3)c12 [Compound 128, 5-(4-Methoxy-1H-pyrrolo[2,3-b]pyridin-3-yl)-N-(1-methylpiperidin-4-yl)pyrazolo[1,5-a]pyridine-3-carboxamide] | 1
13 | Cc1nc2cnc(-c3c[nH]c4nc(C5CCC5)ccc34)cc2n1C(C)C [Compound 1546, 6-(6-Cyclobutyl-1H-pyrrolo[2,3-b]pyridin-3-yl)-1-isopropyl-2-methyl-1H-imidazo[4,5-c]pyridine] | 2050
14 | c1cnc2ccc(-c3c[nH]c4nc(-c5cncs5)ccc34)cc2c1 [Compound 2055, 5-(3-(quinolin-6-yl)-1H-pyrrolo[2,3-b]pyridin-6-yl)thiazole] | 37
15 | CN1CCC(Oc2ccc(Nc3ncnc4ccc(-c5c[nH]c6ncccc56)cc34)cn2)CC1 [Compound 102, N-(6-((1-Methylpiperidin-4-yl)oxy)pyridin-3-yl)-6-(1H-pyrrolo[2,3-b]pyridin-3-yl)quinazolin-4-amine] | 2
16 | Cc1ccncc1-c1cnc2[nH]cc(-c3cc(F)c4nc(C)n(C(C)C)c4c3)c2c1 [Compound 1249, 4-Fluoro-1-isopropyl-2-methyl-6-(5-(4-methylpyridin-3-yl)-1H-pyrrolo[2,3-b]pyridin-3-yl)-1H-benzo[d]imidazole] | 2
17 | CN1CCC(C(=O)Nc2cnc3[nH]cc(-c4ccc5ncccc5c4)c3c2)CC1 [Compound 648, 1-Methyl-N-(3-(quinolin-6-yl)-1H-pyrrolo[2,3-b]pyridin-5-yl) piperidine-4-carboxamide] | 2
18 | CN1CCn2ncc(-c3cnc4[nH]cc(-c5ccc6ncncc6c5)c4c3)c2C1 [Compound 1154, 6-(5-(5-Methyl-4,5,6,7-tetrahydropyrazolo[1,5-a]pyrazin-3-yl)-1H-pyrrolo[2,3-b]pyridin-3-yl)quinazoline] | 10
19 | COc1ccc(Nc2ncnc3ccc(-c4c[nH]c5ncccc45)cc23)cn1 [Compound 101, N-(6-Methoxypyridin-3-yl)-6-(1H-pyrrolo[2,3-b]pyridin-3-yl) quinazolin-4-amine] | 6
20 | CN1CCN(c2ccc(NC(=O)c3cnc4[nH]cc(-c5ccn6ncc(C(=O)N7CCCCC7)c6c5)c4c3)cn2)CC1 [Compound 802, N-(6-(4-Methylpiperazin-1-yl)pyridin-3-yl)-3-(3-(piperidine-1-carbonyl)pyrazolo[1,5-a]pyridin-5-yl)-1H-pyrrolo[2,3-b]pyridine-5-carboxamide] | 7
21 | Cc1nn(C)c(C)c1-c1cnc2[nH]cc(-c3cc(F)c4nc(C)n(C(C)C)c4c3)c2c1 [Compound 1081, 4-Fluoro-1-isopropyl-2-methyl-6-(5-(1,3,5-trimethyl-1H-pyrazol-4-yl)-1H-pyrrolo[2,3-b]pyridin-3-yl)-1H-benzo[d]imidazole] | 2
22 | CN1CCN(C(=O)c2cnc3[nH]cc(-c4ccn5ncc(-c6cnn(C)c6)c5c4)c3c2)CC1 [Compound 502, (3-(3-(1-Methyl-1H-pyrazol-4-yl)pyrazolo[1,5-a]pyridin-5-yl)-1H-pyrrolo[2,3-b]pyridin-5-yl)(4-methylpiperazin-1-yl)methanone] | 16
23 | COc1ccc(-c2c[nH]c3ncccc23)cn1 [Compound 67, 3-(6-Methoxypyridin-3-yl)-1H-pyrrolo[2,3-b]pyridine] | 19
24 | COc1cnc2[nH]cc(-c3ccn4ncc(C(=O)N5CCN(C)CC5)c4c3)c2c1 [Compound 2047, (5-(5-Methoxy-1H-pyrrolo[2,3-b]pyridin-3-yl)pyrazolo[1,5-a]pyridin-3-yl)(4-methylpiperazin-1-yl)methanone] | 32
25 | CN1CCC(NC(=O)c2ccc3c(-c4ccc5ncnn5c4)c[nH]c3n2)CC1 [Compound 2048, 3-([1,2,4]Triazolo[1,5-a]pyridin-6-yl)-N-(1-methylpiperidin-4-yl)-1H-pyrrolo[2,3-b]pyridine-6-carboxamide] | 2540
26 | Cc1nc2c(F)cc(-c3c[nH]c4ncc(C(=O)N5C6CCC5CN(C)C6)cc34)cc2n1C(C)C [Compound 535, (3-(4-Fluoro-1-isopropyl-2-methyl-1H-benzo[d]imidazol-6-yl)-1H-pyrrolo[2,3-b]pyridin-5-yl)(3-methyl-3,8-diazabicyclo[3.2.1]octan-8-yl)methanone] | 2
